Data: PubChem BioAssay (NCI)
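Cells were grown in 96-well plates and exposed to each compound for 48 hours at five concentrations; endpoints were interpolated linearly between bracketing concentrations, or set to the highest concentration if not reached. GI50 marks 50% less growth. TGI: concentration producing complete growth inhibition.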

Assays:
Assay in all cases: DTP human tumour cell line panel, 48 h
[1] = system: M14 melanoma
[2] = system: IGROV1 ovarian
[3] = system: OVCAR-3 ovarian
[4] = system: OVCAR-5 ovarian
[5] = system: HOP-62 NSCLC
[6] = system: SR leukemia
[7] = system: NCI-H226 lung
[8] = system: NCI-H23 lung
[9] = system: MALME-3M melanoma
[10] = system: SK-MEL-28 melanoma

SMILES	GI50 [1] [µM]	TGI [1] [µM]	GI50 [2] [µM]	TGI [2] [µM]	GI50 [3] [µM]	TGI [3] [µM]	GI50 [4] [µM]	TGI [4] [µM]	GI50 [5] [µM]	TGI [5] [µM]	GI50 [6] [µM]	TGI [6] [µM]	GI50 [7] [µM]	TGI [7] [µM]	GI50 [8] [µM]	TGI [8] [µM]	GI50 [9] [µM]	TGI [9] [µM]	GI50 [10] [µM]	TGI [10] [µM]
NC(=N\N=C/c1cccc([N+](=O)[O-])c1)/C(N)=N\N=C/c1cccc([N+](=O)[O-])c1	> 100	> 100	> 100	> 100	> 100	> 100	> 100	> 100	> 100	> 100	> 100	> 100	> 100	> 100	> 100	> 100	> 100	> 100	> 100	> 100
CC1(C)CC(n2cnc(-c3ccc(F)cc3)c2-c2ccnc(N)n2)CC(C)(C)N1	> 25	> 25	24.7	> 25	> 25	> 25	24.4	> 25	> 16.8	> 25	> 19.3	> 25	> 13.9	> 25	> 25	> 25	> 25	> 25	> 25	> 25
Cc1cccc(C)c1NC(=O)CCc1nnc2s/c(=C\c3ccc(Cl)cc3)c(=O)n12		> 100		> 100		> 100		> 100		> 100		> 100		> 100		> 100		> 100		> 100
